Experimental data taken from patent US20220387602A1, “BIFUNCTIONAL DEGRADERS AND THEIR METHODS OF USE” (NOVARTIS AG, priority 2019, published 2022).

Legend:
[1] = molecular target: T1, CRBN (Homo sapiens, UniProt Q96SW2); test: CRBN displacement assay Format 2a (fluorescence polarization, 1536-well, Envision reader); format: binding
Protocol: (§1) Compounds were tested in the following biochemical and cellular assays.
(§2) BodipyFL conjugated lenalidomide compound HH was used as a fluorescent probe. […] Protein and substrate were diluted in assay buffer.
The fluorescence of the Bodipy FL-based probe was excited at 480 nm and the emissions of the product were measured at 535 nm. The fluorescence in each well was excited by 30 flashes per measurement.
For the determination of AC50 values, assays were performed at room temperature in 1536-well plates with a total assay volume of 6.03 μL per well. The test compounds were dissolved and diluted in 100% DMSO. For the assays, 30 nL of DMSO or compound solution were added per well, followed by the addition of 3 μL protein solution (80 nM protein in 1× assay buffer).
The final assay concentration of the protein was nominally 40 nM. After 45 minutes of pre-incubation at room temperature, the competition for binding was started by the addition of 3 μL probe solution (10 nM probe dissolved in assay buffer). The final concentration of the probe in the assays was 5 nM. After the addition of the probe solution, the final DMSO concentration in the assay was 0.5% (v/v). The effect of the probe on the pre-established compound-protein complex equilibrium was determined after 45 minutes (t=45 min). The AC50 value was calculated from the plot of percentage of protein saturation versus the test compound concentration by a logistics fit according to: y=A^2+(A^1−A^2)/(1+(x/AC50)^p), where y is the %-saturation value at the test compound concentration, x. A^1 is the lowest saturation value, i.e., 0%, and A^2 the maximum saturation value, i.e. 100%. The exponent, p, is the Hill coefficient.

[2] = molecular target: T1, CRBN; test: CRBN displacement assay Format 1 (fluorescence polarization, BodipyFL-lenalidomide probe Compound HH); format: binding
Protocol: as §1, §2
All protein and probe containing solutions were handled in ‘Maxymum Recovery’ tubes (Axygen Scientific Inc., Union City, USA). […] For the plate measurements a PHERAstar reader (BMG Labtech, Offenburg, Germany) was used. The instrument was equipped with a specific optics module containing filters and dichoic mirrors for measuring the fluorescence polarization-type assay. With this module, the fluorescence of the Bodipy FL-based probe was excited at 485 nm and the emissions of the product were measured at 520 nm. The fluorescence in each well was excited by 10 flashes per measurement.
For the determination of AC50 values, the assays were performed at room temperature in 384-well plates with a total assay volume of 10.1 μL per well. The test compound was dissolved in 90% (v/v) DMSO/water. For the assays, 100 nL of the 90% (v/v) DMSO/water solution or compound solution were added per well, followed by the addition of 5 μL protein solution (protein in 1× assay buffer).
The final assay concentration of the protein was nominally 100 nM. After 45 minutes of pre-incubation at room temperature, the competition for binding was started by the addition of 5 μL probe solution (probe dissolved in assay buffer). The final concentration of the probes in the assays was 5 nM. After the addition of the probe solution, the final DMSO concentration in the assay was 0.9% (v/v). The effect of the probe on the pre-established compound-protein complex equilibrium was determined after 45 minutes (t=45 min). The AC50 value was calculated from the plot of percentage of protein saturation versus the test compound concentration by a logistics fit according to: y=A^2+(A^1−A^2)/(1+(x/AC50)^p), where y is the %-saturation value at the test compound concentration, x. A^1 is the lowest saturation value, i.e., 0%, and A^2 the maximum saturation value, i.e. 100%. The exponent, p, is the Hill coefficient.

[3] = molecular target: T2, BTK (Homo sapiens, UniProt Q06187); test: BTK-GFP protein abundance flow cytometry assay in HEK293A; format: cell-based; conditions: 24 h; for BTK degradation Amax: % protein remaining at the concentration at which maximum degradation is seen, HEK293A; for DC50: concentration at which 50% maximal degradation was observed, HEK293A BTK-GFP sensor cells
T2 construct: the BTK open reading frame (ORF) was first shuttled from a pcDNA-DEST40-BTK vector; expressed in transfected cells; host or cells: HEK293A (Invitrogen R70507), lentiviral transduction, blasticidin selection
T2 sequence (Q06187 whole entry): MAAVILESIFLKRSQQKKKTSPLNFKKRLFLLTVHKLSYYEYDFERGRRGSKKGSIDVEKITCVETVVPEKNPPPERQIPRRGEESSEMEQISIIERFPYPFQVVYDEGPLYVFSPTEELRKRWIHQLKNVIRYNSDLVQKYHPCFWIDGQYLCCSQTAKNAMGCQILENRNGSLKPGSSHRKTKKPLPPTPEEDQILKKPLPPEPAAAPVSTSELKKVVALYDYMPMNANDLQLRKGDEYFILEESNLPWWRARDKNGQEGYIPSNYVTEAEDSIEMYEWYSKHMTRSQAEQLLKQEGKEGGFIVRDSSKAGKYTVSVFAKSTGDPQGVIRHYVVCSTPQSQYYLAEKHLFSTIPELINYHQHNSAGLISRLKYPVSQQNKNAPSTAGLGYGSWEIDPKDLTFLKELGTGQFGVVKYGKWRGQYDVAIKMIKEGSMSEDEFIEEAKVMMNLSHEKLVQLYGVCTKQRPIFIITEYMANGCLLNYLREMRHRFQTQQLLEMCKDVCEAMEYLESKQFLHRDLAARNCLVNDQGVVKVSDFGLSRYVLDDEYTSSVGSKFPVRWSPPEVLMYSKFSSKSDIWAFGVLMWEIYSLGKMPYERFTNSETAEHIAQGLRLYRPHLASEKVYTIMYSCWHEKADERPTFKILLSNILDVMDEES
Protocol: Degradation of BTK, CSK, ABL2, EPHA4 and YES1 was measured in HEK293A cells (Invitrogen R70507) expressing either BTK-GFP and RFP, CSK-GFP and mCherry, GFP-ABL2 and mCherry, EPHA4-GFP and mCherry, or YES1-GFP and mCherry from a stably integrated bicistronic BTK-GFP-iresRFP, CSK-GFP-CHYSEL-mCherry, GFP-ABL2-CHYSEL-mCherry, EPHA4-GFP-CHYSEL-mCherry, or YES1-GFP-CHYSEL-mCherry construct, respectively. Reduction of the GFP signal measured by flow cytometry served as readout for BTK, CSK, ABL2, EPHA4 and YES1 degradation after degrader treatment.
The mix was incubated for another 20 min at RT and then added on 1 mL of a freshly prepared suspension of HEK293FT cells in a well of a 6-well plate (concentration 1.2×10^6 cells/mL). 1 day after transfection, the medium was replaced with 1.5 mL of complete growth medium (DMEM high Glucose+10% FCS+1% L-Glutamine+1% NEAA+1% NaPyr.). 48 h post transfection supernatant containing viral transducing particles was collected and frozen at −80° C.
Infection was performed with 90 μL of collected supernatant containing viral transducing particles in 1 mL medium including 8 µg/mL polybrene. 24 h post infection, stably transfected cells were selected with blasticidin at a concentration of 8 μg/mL referred to as stable HEK293A sensor cells.
Stable HEK293A sensor cells were maintained in complete growth medium (DMEM high Glucose+10% FCS+1% L-Glutamine+1% NEAA+1% NaPyr.) with passaging performed twice per week. On Day 0, stable HEK293A sensor cells were seeded at 10,000 cells/well in a 96-well microtiter plate in 260 μL complete medium. On Day 1, cells were treated in duplicate with 10-point 1:3 dilution series of compound using the HP D300 Digital Dispenser (Tecan). DMSO concentrations were normalized across the plate to 0.1%. On Day 2, after 24 h of incubation at 37° C., treatment media was discarded, cells rinsed with 100 μL/well PBS and then detached using 40 μL trypsin/well for 5 min. Trypsin was neutralized with 100 μL/well PBS+20% FCS). Flow cytometry was performed on the samples using the BD FACS CANTO II (Becton Dickinson). Cell identification was then performed using forward (FSC) vs. side scatter (SSC) plots. Single cell discrimination is performed using SSC-Width (SSC-W) vs. SSC-Height (SSC-H) plots. Median GFP values for 5,000 single cells are used to determine BTK levels. Median GFP values from HEK293 Å-iresRFP are used as a background signal and thus defining 0% BTK signal. Median GFP values from DMSO treated HEK293 Å-BTK-GFP-iresRFP are used to define 100% BTK signal for subsequent DC50 curves (concentration at 50% BTK degradation). GFP and RFP are read in the channels called FITC and PE, respectively.
Concentration response curves plotting relative reduction of the GFP signal (measured by flow cytometry) versus 10 compound concentrations (starting concentration 10 μM, 3 fold dilution steps) of the compounds allowed generation of DC50 values. Protein abundance measured for the second generation vectors having a chysel was done in close analogy to the above described method for measuring BTK abundance.
Table 5 columns are defined as follows: DC50 refers to the concentration at which 50% maximal degradation was observed; deg Amax is the extent of degradation and the value refers to the % protein remaining at the concentration at which maximum degradation is seen.

[4] = concentration at which 50% of reference probe Compound HH is displaced, 40 nM protein, 5 nM probe, read-out: CRBN AC50 [μM] Format 2a
[5] = concentration at which 50% of reference probe Compound HH is displaced, 100 nM protein, 5 nM probe, Table 4, read-out: CRBN AC50 [μM] Format 1

T1 sequence (Q96SW2 whole entry): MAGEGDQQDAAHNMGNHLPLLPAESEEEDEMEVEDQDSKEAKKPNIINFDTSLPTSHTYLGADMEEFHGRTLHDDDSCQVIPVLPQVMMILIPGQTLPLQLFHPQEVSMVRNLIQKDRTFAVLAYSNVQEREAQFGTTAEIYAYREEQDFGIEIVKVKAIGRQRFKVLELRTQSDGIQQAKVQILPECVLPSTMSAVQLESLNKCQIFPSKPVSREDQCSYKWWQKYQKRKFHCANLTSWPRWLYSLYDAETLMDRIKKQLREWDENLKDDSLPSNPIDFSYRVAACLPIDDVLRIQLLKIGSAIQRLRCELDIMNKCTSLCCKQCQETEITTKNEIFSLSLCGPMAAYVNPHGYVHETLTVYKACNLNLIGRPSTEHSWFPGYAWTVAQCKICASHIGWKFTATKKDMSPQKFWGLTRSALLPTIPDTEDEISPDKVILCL

SMILES	AC50 [1, 4]	AC50 [2, 5]	AC50 [2]	also measured
O=C1CCN(c2ccc(OCC(=O)N3CCC(OC4CCNCC4)CC3)cc2)C(=O)N1 [ILB-55, 1-(4-(2-Oxo-2-(4-(piperidin-4-yloxy)piperidin-1-yl)ethoxy)phenyl)dihydropyrimidine-2,4(1H,3H)-dione]			14.4 µM	AC50 [1]: 4.04 µM
O=C1CCN(c2c(F)cc(C#CC3CCNCC3)cc2F)C(=O)N1 [ILB-38, 1-(2,6-difluoro-4-(piperidin-4-ylethynyl)phenyl)dihydropyrimidine-2,4(1H,3H)-dione]	6.02 µM	8.44 µM		
CC(C)(C)OC(=O)NCC#Cc1cc(F)c(N2CCC(=O)NC2=O)c(F)c1 [ILB-43, tert-Butyl (3-(4-(2,4-dioxotetrahydropyrimidin-1(2H)-yl)-3,5-difluorophenyl)prop-2-yn-1-yl)carbamate]			2.99 µM	AC50 [1]: 2.93 µM
Cc1cc(OCCN2CCC(OC3CCN(Cc4ccc(-c5cc6c(-c7cc(F)cc(NC(=O)c8ccc(C(C)(C)O)cc8F)c7C)ncnc6[nH]5)cc4)CC3)CC2)ccc1N1CCC(=O)NC1=O [Compound 30, N-(3-(6-(4-((4-((1-(2-(4-(2,4-dioxotetrahydropyrimidin-1(2H)-yl)-3-methylphenoxy)ethyl)piperidin-4-yl)oxy)piperidin-1-yl)methyl)phenyl)-7H-pyrrolo[2,3-d]pyrimidin-4-yl)-5-fluoro-2-methylphenyl)-2-fluoro-4-(2-hydroxypropan-2-yl)benzamide]				BTK degradation Amax [3]: 12.2%; DC50 [3]: 0.0098 µM
O=C1CCN(c2c(F)cc(C#CCN3CCNCC3)cc2F)C(=O)N1 [ILB-45, 1-(2,6-difluoro-4-(3-(piperazin-1-yl)prop-1-yn-1-yl)phenyl)dihydropyrimidine-2,4(1H,3H)-dione]			13.5 µM	
Cc1c(NC(=O)c2ccc(C(C)(C)O)cc2F)cc(F)cc1-c1ncnc2[nH]c(-c3ccc(CN4CCN(CCN5CCC(Oc6ccc(N7CCC(=O)NC7=O)cc6)CC5)CC4)cc3)cc12 [Compound 28, N-(3-(6-(4-((4-(2-(4-(4-(2,4-dioxotetrahydropyrimidin-1(2H)-yl)phenoxy)piperidin-1-yl)ethyl)piperazin-1-yl)methyl)phenyl)-7H-pyrrolo[2,3-d]pyrimidin-4-yl)-5-fluoro-2-methylphenyl)-2-fluoro-4-(2-hydroxypropan-2-yl)benzamide]				BTK degradation Amax [3]: 40%; DC50 [3]: 0.0092 µM
Cc1c(NC(=O)c2ccc(C(C)(C)O)cc2F)cc(F)cc1-c1ncnc2[nH]c(-c3ccc(CN4CCC5(CCN(CCOc6ccc(N7CCC(=O)NC7=O)c(Cl)c6)CC5)CC4)cc3)cc12 [Compound 31, N-(3-(6-(4-((9-(2-(3-chloro-4-(2,4-dioxotetrahydropyrimidin-1(2H)-yl)phenoxy)ethyl)-3,9-diazaspiro[5.5]undecan-3-yl)methyl)phenyl)-7H-pyrrolo[2,3-d]pyrimidin-4-yl)-5-fluoro-2-methylphenyl)-2-fluoro-4-(2-hydroxypropan-2-yl)benzamide]				BTK degradation Amax [3]: 32.8%; DC50 [3]: 0.0557 µM

Now from value to compound, other results behind:

AC50 [1, 4]	AC50 [2, 5]	AC50 [2]	SMILES	also measured
1.3 µM	3.41 µM		O=C1CCN(c2cccc(C(=O)O)c2)C(=O)N1 [ILB-28, 3-(2,4-dioxotetrahydropyrimidin-1(2H)-yl)benzoic acid]	
		61.2 µM	O=C1CCN(Cc2cccc(CCO)c2)C(=O)N1 [ILB-7, 1-(3-(2-Hydroxyethyl)benzyl)dihydropyrimidine-2,4(1H,3H)-dione]	AC50 [1]: > 50 µM; CRBN Amax* (% at 50 μM) Format 2a ([1]; greatest effect as % displacement of the reference probe at the highest concentration tested (50 μM), given where AC50 >50 μM, 45 min): 40%
5.79 µM	13 µM		O=C(O)COc1ccc(N2CCC(=O)NC2=O)cc1 [ILB-14, 2-(4-(2,4-Dioxotetrahydropyrimidin-1(2H)-yl)phenoxy)acetic acid]	
1.91 µM	3.65 µM		C=CCOc1cccc(N2CCC(=O)NC2=O)c1 [ILB-34, 1-(3-(allyloxy)phenyl)dihydropyrimidine-2,4(1H,3H)-dione]	
3.79 µM	11.2 µM		O=CCOc1cccc(N2CCC(=O)NC2=O)c1 [ILB-18, 2-(3-(2,4-Dioxotetrahydropyrimidin-1(2H)-yl)phenoxy)acetaldehyde]	
2.61 µM	7.37 µM		Cc1cc(OCC(=O)O)ccc1N1CCC(=O)NC1=O [ILB-15]	
2.16 µM	14.9 µM		Cc1ccc(S(=O)(=O)NCCCCCN)cc1N1CCC(=O)NC1=O [ILB-53, N-(5-aminopentyl)-3-(2,4-dioxotetrahydropyrimidin-1(2H)-yl)-4-methylbenzenesulfonamide]	
		2.8 µM	O=C1CCN(c2cc(C(=O)N3CCC(OC4CCNCC4)CC3)ccc2Cl)C(=O)N1 [ILB-60, 1-(2-Chloro-5-(4-(piperidin-4-yloxy)piperidine-1-carbonyl)phenyl)dihydropyrimidine-2,4(1H,3H)-dione]	
	0.95 µM		Cc1cc(F)c(C(=O)O)cc1N1CCC(=O)NC1=O [ILB-29, 5-(2,4-dioxotetrahydropyrimidin-1(2H)-yl)-2-fluoro-4-methylbenzoic acid]	
